# How the values were obtained:
# [1] = test system: Candida albicans (yeast); conditions: cited from earlier work
# [2] = test system: Staphylococcus aureus; conditions: cited from earlier work
# [3] = test system: Streptococcus mutans; conditions: cited from earlier work
# [4] = test system: Herpes virus type 2 (HSV-2); conditions: cited from earlier work
# [5] = test system: Corynebacteria sp.; conditions: cited from earlier work
# [6] = test system: Neisseria gonorrhoeae; conditions: cited from earlier work
# [7] = test system: Pseudomonas aeruginosa; conditions: cited from earlier work
# [8] = test system: Helicobacter pylori; conditions: cited from earlier work
# [9] = test system: Herpes virus type 1 (HSV-1); conditions: cited from earlier work
# [10] = test system: Haemophilus influenzae; conditions: cited from earlier work
# [11] = test system: Staphylococcus epidermis; conditions: cited from earlier work
# [12] = test system: Streptococci pyogenes; conditions: cited from earlier work
# [13] = test system: Streptococci A; conditions: cited from earlier work
# [14] = test system: Micrococcus sp.; conditions: cited from earlier work
# [15] = test system: Respiratory syncytial virus (RSV); conditions: cited from earlier work
# [16] = test system: Lactobacillus jensenii; conditions: cited from earlier work
# [17] = test system: Parainfluenza virus type 2; conditions: cited from earlier work
# [18] = test system: Influenza A virus; conditions: cited from earlier work
# [19] = test system: Streptococcus pneumoniae; conditions: cited from earlier work
# [20] = Thermostability of aqueous lipid solutions; type: physicochemical; conditions: exposed to temperature below 10° C. or above 25° C.
# From the text: EP-0351651 describes the use of PEG-C8/C10-glycerides as an absorption promoter for insulin. Especially for orally and buccally administered insulin. From the disclosure it appears that an increase in concentration of PEG-C8/C10-glycerides results in an increase in absorption. With respect to a nasal composition the composition described has a relatively high concentration of absorption enhancer, namely about 50% w/w. WO2003070280 (Absorption enhancing agent) describes the use of PEG-C8/C10-glycerides as absorption promoter for e.g. sumatriptan, in most preferred concentrations of 0.1-10%. Here, the function of PEG-C8/C10-glycerides should not promote absorption, since that will remove the active ingredient from the surface such as the mucosal surface, and into the systemic circulation. However, PEG-C8/C10 is able to act as a thermostabilizer for formulations containing lipids that are insoluble in water.
# [21] = test system: Listeria monocytogenes; conditions: cited from earlier work
# [22] = test system: Streptococcus D; conditions: cited from earlier work
# [23] = test system: Campylobacter jejuni; conditions: cited from earlier work
# [24] = test system: Chlamydia trachomatis; conditions: cited from earlier work
# [25] = test system: Nococardia asteroides; conditions: cited from earlier work
structure (smiles),measurement,setting,value
CCCCCCCCCC(=O)OCC(O)CO (stereo not shown) [monocaprin],effectiveness against microbe,[1],effective
same,bactericidal effect,[2],bacteriocid
same,effectiveness against microbe,[3],effective
same,effectiveness against virus,[4],effective
same,effectiveness against microbe,[5],effective
same,effectiveness against microbe,[6],effective
same,effectiveness against microbe,[7],effective
same,effectiveness against microbe,[8],effective
same,effectiveness against virus,[9],effective
same,bactericidal effect,[10],bacteriocid
same,bactericidal effect,[11],bacteriocid
same,bactericidal effect,[12],bacteriocid
same,bactericidal effect,[13],bacteriocid
same,effectiveness against microbe,[14],effective
same,effectiveness against virus,[15],effective
same,effectiveness against microbe,[16],effective
same,effectiveness against virus,[17],effective
same,effectiveness against virus,[18],effective
same,effectiveness against microbe,[19],effective
same,precipitation in aqueous formulations,[20],will easily precipitate
same,effectiveness against microbe,[21],effective
same,effectiveness against microbe,[22],effective
same,effectiveness against microbe,[23],effective
same,effectiveness against microbe,[24],effective
same,effectiveness against microbe,[25],effective

# Source: patent US11337949B2, “Thermostable formulation of biologically active substances” (CAPRETTO EHF., priority 2016, dated 2022)
